# Key:
# [1] = tested on: HEK293T cells deficient for VASH1 and VASH2; details: Nieuwenhuis et al., 2017; cited from earlier work
# SVBP-VASH2 complex = SVBP-VASH2 complex (Homo sapiens, UniProt Q86V25); assay: Detyrosination assay using tubulin purified from Sf9 cells and recombinant SVBP-VASH2 complex; details: 0.1 μM and 10 μM; 15 min at 37° C.; microtubules from Sf9 tubulin; western blot
# Chain of SVBP-VASH2 complex (Q86V25 whole entry): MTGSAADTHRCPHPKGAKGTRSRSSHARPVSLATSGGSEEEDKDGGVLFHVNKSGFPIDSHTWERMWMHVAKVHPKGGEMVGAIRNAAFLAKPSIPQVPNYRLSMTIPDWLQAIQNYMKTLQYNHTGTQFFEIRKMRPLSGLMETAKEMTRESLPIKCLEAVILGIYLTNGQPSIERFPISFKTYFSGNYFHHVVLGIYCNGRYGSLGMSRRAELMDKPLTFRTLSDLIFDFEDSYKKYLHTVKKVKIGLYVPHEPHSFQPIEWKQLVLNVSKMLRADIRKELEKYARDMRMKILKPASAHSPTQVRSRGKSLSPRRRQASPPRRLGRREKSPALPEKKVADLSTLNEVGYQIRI
# Chain of SVBP-VASH2 complex (Q8N300 whole entry partner): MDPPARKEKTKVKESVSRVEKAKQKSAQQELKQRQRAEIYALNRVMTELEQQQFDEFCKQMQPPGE
# Protocol: FIG. 17: Detyrosination assay performed using tubulin purified from Sf9 cells and recombinant SVBP-VASH2 complex in absence or presence of putative inhibitors of detyrosinase. […] FIG. 17b: Western blot. FIG. 17c: Representation of relative optical density (detyrosination/tubulin).
# A negative control sample consisting of the tubulin in the reaction buffer in absence of the detyrosinase (SVBP-VASH2 complex) was also analysed by western blotting (FIG. 17b).
Structure (SMILES),alpha-tubulin detyrosination [1],reduction of the detyrosinating activity of SVBP-VASH2 complex (SVBP-VASH2 complex)
"CC(=O)O[C@H]1C(=O)[C@@]2(C)[C@H]([C@H](OC(=O)c3ccccc3)[C@]3(O)C[C@H](OC(=O)[C@H](O)[C@@H](NC(=O)c4ccccc4)c4ccccc4)C(C)=C1C3(C)C)[C@]1(OC(C)=O)CO[C@@H]1C[C@@H]2O [Taxol, paclitaxel]",robust increase,
"C=C1C(=O)O[C@@H]2C[C@@]3(C)CCC[C@H](C)C3=C[C@H]12 [alantolactone, Alantolactone]",,did not result in any significant reduction
"C=C1C(=O)O[C@@H]2/C=C(\C)CC/C=C(\C)CC[C@@H]12 [costunolide, Costunolide]",,did not result in any significant reduction
